In patent publication US11999732B2, “P2X3 receptor antagonists” (RECORDATI INDUSTRIA CHIMICA E FARMACEUTICA SPA, priority 2018, dated 2024):
Read-outs that look alike come from different tables or passages of the source.

Molecular target: T1, human P2X3 receptor (Homo sapiens, UniProt P56373)
T1 construct: expressed in transfected cells; host or cells: CHO-K1
T1 sequence (P56373 1-397): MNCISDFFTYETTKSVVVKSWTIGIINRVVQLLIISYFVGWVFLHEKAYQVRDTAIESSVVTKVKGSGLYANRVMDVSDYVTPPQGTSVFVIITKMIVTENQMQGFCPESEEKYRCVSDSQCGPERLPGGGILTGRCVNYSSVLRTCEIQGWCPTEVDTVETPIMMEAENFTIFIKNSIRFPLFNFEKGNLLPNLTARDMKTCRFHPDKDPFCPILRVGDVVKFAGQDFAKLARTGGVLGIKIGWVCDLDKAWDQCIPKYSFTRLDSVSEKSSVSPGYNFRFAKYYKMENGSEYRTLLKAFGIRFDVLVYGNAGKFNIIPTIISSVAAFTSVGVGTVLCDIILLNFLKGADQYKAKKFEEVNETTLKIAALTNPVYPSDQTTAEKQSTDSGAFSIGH
Assay: Calcium luminescence (photoprotein) assay in CHO-K1 cells co-expressing human P2X3 receptor, α,β-Met-ATP stimulation, FLEXSTATION readout
Type: cell-based
Settings: human P2X3 receptor antagonist activity, CHO-K1 cells, α,β-Met-ATP, read-out: h-P2X3 IC50
Protocol: The assay for the human purinergic P2X3 receptor has been adapted to the internal screening instrumentation using the FLEXSTATION as reader and a photoprotein as luminescent readout. The assay consists of CHO-K1 cells recombinantly co-expressing the human P2rx3 receptor and a Ca^2+ sensitive photoprotein. Cells are maintained in DMEM F-12 (1:1) mixture (LONZA cat. no BE04-687F/U1) supplemented with 9 mL of 100 mM Sodium Pyruvate (LONZA cat. no BE13-115E), 29 mL of 7.5% Sodium Bicarbonate (LONZA cat. no: BE17-613E), 5.5 mL of 1 M Hepes (LONZA cat. no BE17-737E), 5 mL of 100× Penicillin/Streptomycin (LONZA cat. no DE17-602E) and 50 mL of Fetal Bovine Serum (Sigma cat. no F7524), 1 mg/mL G418 (Sigma cat. no G8168) and 5 µg/ml puromycin (Sigma cat. no P9620). Standard propagation conditions consist of seeding in a P75 flask twice a week, recovering about 20×10^6 cells, corresponding to about 80% confluency. Cells were seeded into black-walled clear bottom 96 well plates at a density of 40000 cells/well in a Tyrode's buffer (Standard Tyrode's buffer: in house solution, 130 mM NaCl, 5 mM KCl, 2 mM CaCl2, 5 mM NaHCO3, 1 mM MgCl2, 20 mM HEPES, pH 7.4). After 24 h the culture medium was replaced with 200 μL/well of coelenterazine in Tyrode's buffer (Coelenterazine: from BIOSYNTH (cat. no C-7001). 10 mM stock solution was prepared in DMSO and glutathione and stored at −20° C.). The plates were incubated for 4 hours at 37° C., and injected with 10 μL/well of test compounds at 25× concentration in Tyrode's buffer. After 4 minutes a second injection of 50 μL/well of 5× α,β-Met-ATP in Tyrode's buffer (α,β-Met-ATP: from Tocris (cat. no 3209), was dissolved at 100 mM in water and stored in aliquots at −20° C.) was performed and the signal of the emitted luminescence was recorded by FLEXSTATION III (Molecular Devices).
The inhibition curves of the tested compounds at cloned P2X3 receptor were determined by nonlinear regression analysis using software Prism 4.0 (Graphpad, San Diego, Calif.). The IC50 values and pseudo-Hill slope coefficients were estimated by the program.

| IC50 (Table 6) [nM] | IC50 (Table 7) [nM] | also measured | Structure (SMILES) |
| --- | --- | --- | --- |
| 241 | – | – | O=C1N2CC(C3CC3)N=C2c2ncc(N3CCOCC3)cc2N1Cc1ccc(Cl)cc1 (stereo not drawn) [Example 10, 6-(4-chlorobenzyl)-2-cyclopropyl-8-(morpholin-4-yl)-2,6-dihydroimidazo[1,2-c]pyrido[2,3-e]pyrimidin-5(3H)-one] |
| – | – | IC50 (Table 8): 3340 nM | CC(C)(C)OC(=O)NC1CCN(c2cnc3c(c2)c(Cc2ccc(Cl)cc2)nn2c(C(C)(C)C)nnc32)CC1 [Example 138, tert-butyl n-[1-[5-tert-butyl-8-(4-chlorobenzyl)-3,4,6,7,13-pentazatricyclo[7.4.0.02,6]trideca-1(9),2,4,7,10,12-hexaen-11-yl]-4-piperidyl]carbamate] |
| 200 | – | – | O=C1N(Cc2ccc(Cl)cc2)c2cc(N3CCOCC3)cnc2C2=NCC(c3ccccc3)N12 (stereo not drawn) [Example 45, 6-(4-chlorobenzyl)-8-(morpholin-4-y1)-3-phenyl-2,6-dihydroimidazo[1,2-c]pyrido[2,3-e]pyrimidin-5(3H)-one] |
| – | 203 | – | CCn1ccc(-c2nnc3c4ncc(N5CCOCC5)cc4n(Cc4ccc(Cl)cc4)c(=O)n23)n1 [Example 109, 6-(4-chlorobenzyl)-3-(1-ethyl-1h-pyrazol-3-yl)-8-(morpholin-4-yl)pyrido[2,3-e][1,2,4]triazolo[4,3-c]pyrimidin-5(6H)-one] |
| 245 | – | – | O=C1N2CC(c3ccccc3)N=C2c2ncc(N3CCOCC3)cc2N1Cc1ccc(Cl)cc1 (stereo not drawn) [Example 36, 6-(4-chlorobenzyl)-8-(morpholin-4-y1)-2-phenyl-2,6-dihydroimidazo[1,2-c]pyrido[2,3-e]pyrimidin-5(3H)-one] |
| – | 259 | – | COc1cc(Cn2c(=O)n3c(C)c(C(C)C)nc3c3ncc(N4CCN(C(C)=O)CC4)cc32)cc(OC)c1 [Example 84, 8-(4-acetylpiperazin-1-yl)-6-(3,5-dimethoxybenzyl)-3-methyl-2-(propan-2-yl)imidazo[1,2-c]pyrido[2,3-e]pyrimidin-5(6H)-one] |
| 636 | – | – | COc1cc(CN2C(=O)N3C(=NC(C)C3C)c3ncc(N4CCOCC4)cc32)cc(OC)c1 (stereo not drawn) [Example 8, 6-(3,5-dimethoxybenzyl)-2,3-dimethyl-8-(morpholin-4-y1)-2,6-dihydroimidazo[1,2-c]pyrido[2,3-e]pyrimidin-5(3H)-one] |
| 124 | – | – | COc1ccc(CN2C(=O)N3CC(C(C)(C)C)N=C3c3ncc(N4CCOCC4)cc32)cc1 (stereo not drawn) [Example 32, 2-tert-butyl-6-(4-methoxybenzyl)-8-(morpholin-4-yl)-2,6-dihydroimidazo[1,2-c]pyrido[2,3-e]pyrimidin-5(3H)-one] |
| 1080 | – | – | O=C1N2CC(CC3CCCCC3)N=C2c2ncc(N3CCOCC3)cc2N1Cc1ccc(Cl)cc1 (stereo not drawn) [Example 61, 6-(4-chlorobenzyl)-2-(cyclohexylmethyl)-8-(morpholin-4-yl)-2,6-dihydroimidazo[1,2-c]pyrido[2,3-e]pyrimidin-5(3H)-one] |
| – | – | IC50 (Table 9): 188 nM | COc1ccc(CN2C(=O)N3C(=NC(=O)C3C(C)C)c3ncc(N4CCOCC4)cc32)cc1 (stereo not drawn) [Example 164, 6-(4-methoxybenzyl)-8-(morpholin-4-yl)-3-(propan-2-yl)imidazo[1,2-c]pyrido[2,3-e]pyrimidine-2,5(3H,6H)-dione] |
| 278 | – | – | CCC1CN2C(=O)N(Cc3cc(OC)cc(OC)c3)c3cc(N4CCOCC4)cnc3C2=N1 (stereo not drawn) [Example 5, 6-(3,5-dimethoxybenzyl)-2-ethyl-8-(morpholin-4-yl)-2,6-dihydroimidazo[1,2-c]pyrido[2,3-e]pyrimidin-5(3H)-one] |
| 678 | – | – | COc1ccc(CN2C(=O)N3CC(CC(C)C)N=C3c3ncc(N4CCOCC4)cc32)cc1 (stereo not drawn) [Example 37, 6-(4-methoxybenzyl)-2-(2-methylpropyl)-8-(morpholin-4-yl)-2,6-dihydroimidazo[1,2-c]pyrido[2,3-e]pyrimidin-5(3H)-one] |
| 1100 | – | – | COc1cc(CN2C(=O)N3CC(C(C)C)N=C3c3ncc(C(=O)N4CCOCC4)cc32)cc(OC)c1 (stereo not drawn) [Example 60, 6-(3,5-dimethoxybenzyl)-8-(morpholin-4-ylcarbonyl)-2-(propan-2-yl)-2,6-dihydroimidazo[1,2-c]pyrido[2,3-e]pyrimidin-5(3H)-one] |
| 720 | – | – | CC(C)CCC1CN2C(=O)N(Cc3ccc(Cl)cc3)c3cc(N4CCOCC4)cnc3C2=N1 (stereo not drawn) [Example 62, 6-(4-chlorobenzyl)-2-(3-methylbutyl)-8-(morpholin-4-yl)-2,6-dihydroimidazo[1,2-c]pyrido[2,3-e]pyrimidin-5(3H)-one] |
| – | 897 | – | COc1ccc(Cn2c(=O)n3c(COC4CCOCC4)nnc3c3ncc(N4CCOCC4)cc32)cc1 [Example 98, 6-(4-methoxybenzyl)-8-(morpholin-4-yl)-3-[(tetrahydro-2H-pyran-4-yloxy)methyl]pyrido[2,3-e][1,2,4]triazolo[4,3-c]pyrimidin-5(6H)-one] |
| 189 | – | – | COc1cc(CN2C(=O)N3CC(C(C)C)N=C3c3ncc(N4CCC(N)CC4)cc32)cc(OC)c1 (stereo not drawn) [Example 42, 8-(4-aminopiperidin-1-yl)-6-(3,5-dimethoxybenzyl)-2-(propan-2-yl)-2,6-dihydroimidazo[1,2-c]pyrido[2,3-e]pyrimidin-5(3H)-one] |
| – | 416 | – | COc1cc(Cn2c(=O)n3cc(CC(C)C)nc3c3ncc(N4CCOCC4)cc32)cc(OC)c1 [Example 74, 6-(3,5-dimethoxybenzyl)-2-(2-methylpropyl)-8-(morpholin-4-yl)imidazo[1,2-c]pyrido[2,3-e]pyrimidin-5(6H)-one] |
| 2040 | – | – | COc1ccc(CN2C(=O)N3C(=NCC3CC(C)C)c3ncc(N4CCOCC4)cc32)cc1 (stereo not drawn) [Example 38, 6-(4-methoxybenzyl)-3-(2-methylpropyl)-8-(morpholin-4-yl)-2,6-dihydroimidazo[1,2-c]pyrido[2,3-e]pyrimidin-5(3H)-one] |
| – | – | IC50 (Table 8): 1150 nM | COCC1CN(c2cnc3c(c2)c(Cc2cc(OC)cc(OC)c2)nn2c(CC(C)C)nnc32)C1 [Example 121, 6-(3,5-dimethoxybenzyl)-8-[3-(methoxymethyl)azetidin-1-yl]-3-(2-methylpropyl)pyrido[2,3-d][1,2,4]triazolo[4,3-b]pyridazine] |
| – | 631 | – | COc1ccc(Cn2c(=O)n3cc(CC(C)C)nc3c3ncc(N4CCOCC4)cc32)cc1 [Example 78, 6-(4-methoxybenzyl)-2-(2-methylpropyl)-8-(morpholin-4-yl)imidazo[1,2-c]pyrido[2,3-e]pyrimidin-5(6H)-one] |
| – | 655 | – | O=c1n(Cc2ccc(Cl)cc2)c2cc(N3CCOCC3)cnc2c2nnc(Cc3cccnc3O)n12 [Example 105, 6-(4-chlorobenzyl)-3-[(2-hydroxypyridin-3-yl)methyl]-8-(morpholin-4-yl)pyrido[2,3-e][1,2,4]triazolo[4,3-c]pyrimidin-5(6H)-one] |
| 5140 | – | – | CCC1CN2C(=O)N(Cc3ccc(OC)cc3)c3cc(N4CC(COC)C4)cnc3C2=N1 (stereo not drawn) [Example 39, 2-ethyl-6-(4-methoxybenzyl)-8-[3-(methoxymethyl)azetidin-1-yl]-2,6-dihydroimidazo[1,2-c]pyrido[2,3-e]pyrimidin-5(3H)-one] |
| – | 1320 | – | CCn1nccc1-c1nnc2c3ncc(N4CCOCC4)cc3n(Cc3ccc(Cl)cc3)c(=O)n12 [Example 107, 6-(4-chlorobenzyl)-3-(1-ethyl-1h-pyrazol-5-yl)-8-(morpholin-4-yl)pyrido[2,3-e][1,2,4]triazolo[4,3-c]pyrimidin-5(6H)-one] |
| – | 53.6 | – | COCC1CN(c2cnc3c(c2)n(Cc2cc(OC)cc(OC)c2)c(=O)n2c(C)c(C(C)C)nc32)C1 [Example 88, 6-(3,5-dimethoxybenzyl)-8-[3-(methoxymethyl)azetidin-1-y1]-3-methyl-2-(propan-2-yl)imidazo[1,2-c]pyrido[2,3-e]pyrimidin-5(6H)-one] |
